The values that follow come from patent US7442798B2, “Autoinducer molecules and uses therefor” (priority 2000, dated 2008).

“Also recorded” adds a separate entry of the source.

The subject of assay [1] is lasB′-lacZ fusion. Nature of the assay: PQS bioassay: activation of lasB′-lacZ fusion in P. aeruginosa strain PAO-R1 (lasR−) (pTS400), β-galactosidase assay. The format is cell-based, Pseudomonas aeruginosa. Here is the method:
To monitor PQS bioactivity, 1-ml cultures of P. aeruginosa strain PAO-R1 (pTS400) were grown for 18 h at 37° C. with shaking (260 rpm; initial optical density was 0.02 at 660 nm) in the presence of culture extract or synthetic PQS. This was followed by measuring activation of the lasB′-lacZ fusion with the use of β-galactosidase (β-gal) assays as described by Miller (19). For culture extracts, bacterial culture fluid was extracted with ethyl acetate and was prepared as described (3). Extracts that were resuspended in ethyl acetate were added to bioassay tubes, and ethyl acetate was removed by drying under a stream of nitrogen. Unless otherwise specified, the amount of material assayed was extracted from 10 ml of culture fluid.

In assay [2] the test system is lasB′-lacZ fusion. To be noted: strain PAO-R1 (lasR) (pTS400); cited from earlier work.
In the next assay the test system is E. coli. Description: anti-E. coli activity. The format is cell-based.
The next assay concerns RhlR. Description: E. coli bioassay: strain DH5a (pECP62.5) with lasB′-lacZ reporter and inducible tacp-rhlR. Format: cell-based, Escherichia coli. To be noted: E. coli strain DH5a (pECP62.5), tacp-rhlR induced. Here is the method:
Using this information, an experiment was conducted to define the requirements for signal activity by developing an E. coli bioassay for the signal. E. coli strain DH5a was transformed with plasmid pECP62.5, which contained the lasB′-lacZ reporter and the inducible tacp-rhlR gene. If the signal worked directly through RhlR, then the induction of tacp-rhlR in the presence of exogenously added signal should result in the activation of lasB′-lacZ in E. coli strain DH5a (pECP62.5).

In a further assay the test system is lasB′-lacZ. Nature of the assay: lasB′-lacZ bioassay in lasR, rhlR double mutant strain PAO-JP3 (pTS400). The format is cell-based, Pseudomonas aeruginosa. Here is the method: This molecule was determined to have a 4-quinolone base structure and therefore has been designated as the Pseudomonas quinolone signal (PQS). Furthermore, exogenously added PQS induced a lasB′-lacZ fusion in the P. aeruginosa lasR mutant, strain PAO-R1, containing the plasmid pTS400. […] Despite the ability of PQS to activate lasB′-lacZ in the absence of lasR, the production of PQS required an active LasR protein. […] It was also determined that at least RhlR was required for PQS to act as a signal because lasB′-lacZ was not induced by PQS in the lasR, rhlR double mutant, strain PAO-JP3, containing the plasmid pTS400.

The subject of a further assay is Staphylococcus aureus. Description: anti-Staphylococcus aureus activity. Format: cell-based.

Regarding `CCCCCCCc1cc(O)c2ccccc2[n+]1[O-]` [2-heptyl-4-hydroxy-quinoline-N-oxide, reference compound], the “induction of lasB′-lacZ / activity in the PQS bioassay (in words)” value (“induction of lasB′-lacZ / activity” for short) with lasB′-lacZ fusion [1] (strain PAO-R1 (lasR−) (pTS400)) is “not active”.

For the compound `CCCCCCCC1C(=O)c2ccccc2N=C1O` (stereo not shown) [2-hydroxy-3-heptyl-4-quinolone, reference compound], the “induction of lasB′-lacZ / activity” value in the assay on lasB′-lacZ fusion [1] (strain PAO-R1 (lasR−) (pTS400)) is given as “not active”.

Turning to `CCCCCCCCCC(=O)CC(=O)N[C@H]1CCOC1=O` [3-oxo-C12-HSL, N-3-(oxododecanoyl)-L-homoserine lactone, reference compound], in the assay on lasB′-lacZ fusion [2], the “response of lasB′-lacZ fusion to exogenously added autoinducer (in words)” value was “unresponsive”. Besides, the “induction of lasB′-lacZ / activity” value in the assay on lasB′-lacZ fusion [1] (strain PAO-R1 (lasR−) (pTS400)) is given as “could not be mimicked”.

In the case of `CCCC(=O)N[C@H]1CCOC1=O` [C4-HSL, N-butanoyl-L-homoserine lactone, reference compound], the “response of lasB′-lacZ fusion to exogenously added autoinducer (in words)” value with lasB′-lacZ fusion [2] is given as “mildly activated”. Besides, the “induction of lasB′-lacZ / activity” value in the assay on lasB′-lacZ fusion [1] (strain PAO-R1 (lasR−) (pTS400)) is “could not be mimicked”.

`CCCCCCCc1[nH]c2ccccc2c(=O)c1O` [PQS, 2-heptyl-3-hydroxy-4-quinolone]: in the assay with E. coli, the anti-E. coli activity result is on record as “does not have detectable”. In addition, the “activation of the lasB promoter (β-gal activity)” value in the assay with lasB′-lacZ fusion [1] (5 mM synthetic PQS, strain PAO-R1 (lasR−) (pTS400), FIG. 6) is listed as 148 Miller units. In addition, the EC50 in the assay with lasB′-lacZ fusion [1] (Pseudomonas aeruginosa, read-out: amount required to activate the bioassay to half of its maximum activity) is around 30 µM. Further, the “induction of lasB′-lacZ / activity” value in the assay on lasB′-lacZ fusion [1] (strain PAO-R1 (lasR−) (pTS400)) is reported as “active; also recorded: dose-dependent induction”. Besides, the “PQS response, lasB′-lacZ, in recombinant E. coli expressing RhlR (in words)” value in the assay on RhlR was “not replicated”. Also, the “induction of lasB′-lacZ (in words)” value in the assay on lasB′-lacZ is “not induced”. Also, the anti-Staphylococcus aureus activity entry with Staphylococcus aureus is “does not have detectable”.
